Results on 42 compounds are retold here after patent EP3262036B1, “THERAPEUTIC PYRIDAZINE COMPOUNDS AND USES THEREOF” (priority 2015, dated 2016).

Chain of BRG1 (P51532 1448-1575): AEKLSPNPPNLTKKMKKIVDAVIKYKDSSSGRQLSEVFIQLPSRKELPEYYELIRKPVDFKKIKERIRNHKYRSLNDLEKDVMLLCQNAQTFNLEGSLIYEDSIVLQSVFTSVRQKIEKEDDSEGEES

This experiment concerns the target BRG1 (Homo sapiens, UniProt P51532). The experiment is described as follows: biochemical. It is filed as binding. To be noted: BRG1 HTRF IC50 (µM). From the text:
IC50 measurements for inhibitors using BRG1 TR-FRET Binding Assay
With `Cc1cc(CC(=O)N2CCN(c3cc(-c4ccccc4O)nnc3N)CC2C)on1` (stereo not drawn) [Example 136, 1-(4-(3-amino-6-(2-hydroxyphenyl)pyridazin-4-yl)-2-methylpiperazin-1-yl)-2-(3-methylisoxazol-5-yl)ethan-1-one], it took 0.0444 µM to reach half-maximal inhibition (IC50).

`Nc1nnc(-c2ccccc2O)cc1N1CCCC(O)(c2ccccc2)C1` (stereo not drawn) [Example 59, 1-(3-amino-6-(2-hydroxyphenyl)pyridazin-4-yl)-3-phenylpiperidin-3-ol]: the IC50 is 0.0158 µM.

As for `CN(C)C(=O)C1CCN(c2cc(-c3ccccc3O)nnc2N)CC1` [Example 19, 1-(3-amino-6-(2-hydroxyphenyl)pyridazin-4-yl)-N,N-dimethylpiperidine-4-carboxamide], it took 0.0564 µM to reach half-maximal inhibition (IC50).

The compound `COC1(Cc2ccccc2)CCN(c2cc(-c3ccccc3O)nnc2N)C1` (stereo not drawn) [Example 40, 2-(6-amino-5-(3-benzyl-3-methoxypyrrolidin-1-yl)pyridazin-3-yl)phenol] yielded an IC50 of 0.0794 µM.

Compound `CNC(=O)CN1CCN(c2cc(-c3ccccc3O)nnc2N)CC1` [Example 24, 2-(4-(3-amino-6-(2-hydroxyphenyl)pyridazin-4-yl)piperazin-1-yl)-N-methylacetamide] returned an IC50 of 0.0746 µM.

With `Nc1nnc(-c2ccccc2O)cc1N1CCC(O)C1` (stereo not drawn) [Example 38, 1-(3-amino-6-(2-hydroxyphenyl)pyridazin-4-yl)pyrrolidin-3-ol], the 50% inhibitory concentration (IC50) amounted to 0.0921 µM.

Take `Nc1nnc(-c2ccccc2O)cc1N1CCN(CC(F)(F)F)CC1` [Example 27, 2-(6-amino-5-(4-(2,2,2-trifluoroethyl)piperazin-1-yl)pyridazin-3-yl)phenol]: it took 0.0755 µM to reach half-maximal inhibition (IC50).

As to `Nc1nnc(-c2ccccc2O)cc1N1CC2CCC(C1)N2C(=O)c1cncs1` [Example 126, (3-(3-amino-6-(2-hydroxyphenyl)pyridazin-4-yl)-3,8-diazabicyclo[3.2.1]octan-8-yl)(thiazol-5-yl)methanone], the IC50 was determined as 0.0203 µM.

In turn, `CC(=O)N1[C@H](C)CN(c2cc(-c3ccccc3O)nnc2N)C[C@H]1C` [Example 128, 1-((2R,6R)-4-(3-amino-6-(2-hydroxyphenyl)pyridazin-4-yl)-2,6-dimethylpiperazin-1-yl)ethan-1-one] showed a concentration for half-maximal inhibition (IC50) of 0.505 µM.

On to `Nc1nnc(-c2ccc(F)cc2O)cc1-c1ccccc1` [Example 231, 2-(6-amino-5-phenylpyridazin-3-yl)-5-fluorophenol], for which the half-inhibitory concentration (IC50) turned out to be 0.995 µM.

In the case of `CN(C)CC1CCCN(c2cc(-c3ccccc3O)nnc2N)C1` (stereo not drawn) [Example 21, 2-(6-amino-5-(3-((dimethylamino)methyl)piperidin-1-yl)pyridazin-3-yl)phenol], half-maximal inhibition (IC50) required 0.116 µM.

In turn, `CC(=O)N1[C@H](C)CN(c2cc(-c3ccccc3O)nnc2N)C[C@@H]1C` [Example 139, 1-((2S,6R)-4-(3-amino-6-(2-hydroxyphenyl)pyridazin-4-yl)-2,6-dimethylpiperazin-1-yl)ethan-1-one] yielded an IC50 of 0.106 µM.

`C[C@H]1CN(c2cc(-c3ccccc3O)nnc2N)CCN1Cc1nccn1C` [Example 92, (S)-2-(6-amino-5-(3-methyl-4-((1-methyl-1H-imidazol-2-yl)methyl)piperazin-1-yl)pyridazin-3-yl)phenol] showed a 50% inhibitory concentration (IC50) of 0.0185 µM.

On to `CN1CCC(c2cc(-c3ccccc3O)nnc2N)CC1` [Example 211, 2-(6-amino-5-(1-methylpiperidin-4-yl)pyridazin-3-yl)phenol], for which inhibition was half-maximal at 0.183 µM (IC50).

In turn, `Cc1ccc(S(=O)(=O)N2CC=C(c3cc(-c4ccccc4O)nnc3N)CC2)cc1` [Example 222, 2-(6-amino-5-(1-tosyl-1,2,3,6-tetrahydropyridin-4-yl)pyridazin-3-yl)phenol] gave an IC50 of 0.0889 µM.

The compound `CC(C)(C)OC(=O)N1CCc2cc(CN3CCN(c4cc(-c5ccccc5O)nnc4N)CC3)ccc21` [Example 106, tert-butyl 5-[[4-[3-amino-6-(2-hydroxyphenyl)pyridazin-4-yl]piperazin-1-yl]methyl]indoline-1-carboxylate] yielded a concentration for half-maximal inhibition (IC50) of 0.689 µM. Compared with the last compound, the IC50 is about 7.8-fold higher.

The compound `CN(C)CC1(O)CCN(c2cc(-c3ccccc3O)nnc2N)CC1` [Example 31, 1-(3-amino-6-(2-hydroxyphenyl)pyridazin-4-yl)-4-((dimethylamino)methyl) piperidin-4-ol] had an IC50 of 0.0208 µM.

On to `Nc1nnc(-c2c(O)cccc2F)cc1-c1ccccc1` [Example 233, 2-(6-amino-5-phenylpyridazin-3-yl)-3-fluorophenol], for which 0.435 µM corresponded to half-maximal inhibition (IC50). Against the preceding compound, the IC50 is about 21-fold higher.

With `CC1CN(c2cc(-c3ccccc3O)nnc2N)CCN1C(=O)C1CC1c1ccccc1` (stereo not drawn) [Example 124, (4-(3-amino-6-(2-hydroxyphenyl)pyridazin-4-yl)-2-methylpiperazin-1-yl)(2-phenylcyclopropyl)methanone], half-maximal inhibition (IC50) required 0.0258 µM.

`NC(=O)C1CCN(c2cc(-c3ccccc3O)nnc2N)CC1` [Example 73, 1-(3-amino-6-(2-hydroxyphenyl)pyridazin-4-yl)piperidine-4-carboxamide] registered an IC50 of 0.0824 µM.

Consider `Cc1nc(CN2CCN(c3cc(-c4ccccc4O)nnc3N)CC2)co1` [Example 104, 2-[6-amino-5-[4-[(2-methyloxazol-4-yl)methyl]piperazin-1-yl]pyridazin-3-yl]phenol], for which the 50% inhibitory concentration (IC50) was 0.0569 µM.

Regarding `Nc1nnc(-c2ccccc2O)cc1N1CCC(c2ccccc2)CC1` [Example 18, 2-(6-amino-5-(4-phenylpiperidin-1-yl)pyridazin-3-yl)phenol], the IC50 worked out at 0.0967 µM.

As for `Nc1nnc(-c2ccccc2O)cc1OC1CCCN(C(=O)c2ccccc2)C1` (stereo not drawn) [Example 185, (3-((3-amino-6-(2-hydroxyphenyl)pyridazin-4-yl)oxy)piperidin-1-yl)(phenyl)methanone], half-maximal inhibition (IC50) required 0.641 µM.

Take `Nc1nnc(-c2ccccc2O)cc1N1CCNC(C(F)(F)F)C1` (stereo not drawn) [Example 23, 2-(6-amino-5-(3-(trifluoromethyl)piperazin-1-yl)pyridazin-3-yl)phenol]: the IC50 stood at 0.172 µM.

`CC1CN(c2cc(-c3ccccc3O)nnc2N)CCN1S(=O)(=O)c1ccccc1` (stereo not drawn) [Example 109, 2-(6-amino-5-(3-methyl-4-(phenylsulfonyl)piperazin-1-yl)pyridazin-3-yl)phenol]: the IC50 was 0.0176 µM.

In turn, `C[C@@H]1CN(c2cc(-c3ccccc3O)nnc2N)C[C@H](C)O1` [Example 243, 2-[6-amino-5-[(2S,6R)-2,6-dimethylmorpholin-4-yl]pyridazin-3-yl]phenol] had an IC50 of 0.0324 µM.

`CC(C)[C@H](N)C(=O)N1CCN(c2cc(-c3ccccc3O)nnc2N)C[C@H]1C` [Example 157, 2-Amino-1-((R)-4-(3-amino-6-(2-hydroxyphenyl)pvridazin-4-yl)-2-methylpiperazin-1-yl)-3-methylbutan-1-one] registered a half-maximal inhibitory concentration (IC50) of 0.0296 µM.

The compound `CC(=O)N1C2CCC1CN(c1cc(-c3ccccc3O)nnc1N)C2` [Example 66, 1-(3-(3-amino-6-(2-hydroxyphenyl)pyridazin-4-yl)-3,8-diazabicyclo[3.2.1]octan-8-yl)ethan-1-one] showed an IC50 of 0.0713 µM.

As to `Cn1ncc2cc(CN3CCN(c4cc(-c5ccccc5O)nnc4N)CC3)ccc21` [Example 105, 2-[6-amino-5-[4-[(1-methylindazol-5-yl)methyl]piperazin-1-yl]pyridazin-3-yl]phenol], the IC50 came to 0.0279 µM.

`Nc1nnc(-c2ccccc2O)cc1N1CCN(Cc2ncco2)CC1` [Example 97, 2-[6-amino-5-[4-(oxazol-2-ylmethyl)piperazin-1-yl]pyridazin-3-yl]phenol] had a 50% inhibitory concentration (IC50) of 0.0714 µM.

Consider `Nc1nnc(-c2ccccc2O)cc1C(=O)NCc1ccccc1` [Example 234, 3-amino-N-benzyl-6-(2-hydroxyphenyl)pyridazine-4-carboxamide], for which inhibition was half-maximal at 0.102 µM (IC50). The IC50 values of the last two compounds are within 1.5-fold of each other.

Consider `CC1CN(c2cc(-c3ccccc3O)nnc2N)CCN1S(=O)(=O)C1CC1` (stereo not drawn) [Example 111, 2-(6-amino-5-(4-(cyclopropylsulfonyl)-3-methylpiperazin-1-yl)pyridazin-3-yl)phenol], for which half-maximal inhibition (IC50) was put at 0.0197 µM.

In turn, `CC1CN(c2cc(-c3ccccc3O)nnc2N)CCN1C(=O)c1cncs1` (stereo not drawn) [Example 138, (4-(3-amino-6-(2-hydroxyphenyl)pyridazin-4-yl)-2-methylpiperazin-1-yl)(thiazol-5-yl)methanone] registered an IC50 of 0.0126 µM. Compared with the last compound, the IC50 is about 1.6-fold lower.

`Nc1nnc(-c2ccccc2O)cc1OC1CCCN(Cc2ccccc2)C1` (stereo not drawn) [Example 181, 2-(6-amino-5-((1-benzylpiperidin-3-yl)oxy)pyridazin-3-yl)phenol] displayed an IC50 of 0.0337 µM.

As to `CC(Oc1cc(-c2ccccc2O)nnc1N)C(C)(C)C` (stereo not drawn) [Example 164, 2-(6-amino-5-((3,3-dimethylbutan-2-yl)oxy)pyridazin-3-yl)phenol], the half-maximal inhibitory concentration (IC50) came to 0.143 µM.

The compound `CC(C)n1cc(CN2CCN(c3cc(-c4ccccc4O)nnc3N)CC2)cn1` [Example 94, 2-[6-amino-5-[4-[(1-isopropylpyrazol-4-yl)methyl]piperazin-1-yl]pyridazin-3-yl]phenol] returned an IC50 of 0.122 µM.

`N#Cc1cccc(CN2CCN(c3cc(-c4ccccc4O)nnc3N)CC2)c1` [Example 96, 3-[[4-[3-amino-6-(2-hydroxyphenyl)pyridazin-4-yl]piperazin-1-yl]methyl]benzonitrile] came in with an IC50 of 0.0569 µM.

As to `Nc1nnc(-c2ccccc2O)cc1C1=CCN(Cc2ccccc2)CC1` [Example 223, 2-(6-amino-5-(1-benzyl-1,2,3,6-tetrahydropyridin-4-yl)pyridazin-3-yl)phenol], the half-maximal inhibitory concentration (IC50) was found to be 0.0205 µM.

`C[C@@H](Oc1cc(-c2ccccc2O)nnc1N)c1cccnc1` [Example 166, (R)-2-(6-amino-5-(1-(pyridin-3-yl)ethoxy)pyridazin-3-yl)phenol] registered an IC50 of 0.132 µM.

The compound `CC(=O)N1[C@@H](C)CN(c2cc(-c3ccccc3O)nnc2N)C[C@@H]1C` [Example 127, 1-((2S,6S)-4-(3-amino-6-(2-hydroxyphenyl)pyridazin-4-yl)-2,6-dimethylpiperazin-1-yl)ethan-1-one] had a 50% inhibitory concentration (IC50) of 0.369 µM.

Compound `C[C@H]1CN(c2cc(-c3ccccc3O)nnc2N)C[C@H](C)O1` [Example 244, 2-[6-amino-5-[(2S,6S)-2,6-dimethylmorpholin-4-yl]pyridazin-3-yl]phenol] registered a half-maximal inhibitory concentration (IC50) of 0.0379 µM.

As for `Cn1ncc2c(CN3CCN(c4cc(-c5ccccc5O)nnc4N)CC3)cccc21` [Example 103, 2-[6-amino-5-[4-[(1-methylindazol-4-yl)methyl]piperazin-1-yl]pyridazin-3-yl]phenol], the IC50 amounted to 0.0289 µM.
